Data reported in ChEMBL document CHEMBL2417538, “Antithrombotic effects of LB30870, a potent, orally active, selective and direct thrombin inhibitor, and pharmacokinetics of its prodrug” (Bioorg Med Chem Lett, 2013).
In brackets after ≈: the same amount, converted by molar mass. Activity calls are given as the source filed them. The rule behind the calls is not given here.

Tests used:
[1] = Oral bioavailability in Beagle dog at 10 mg/kg; assay type: ADME, organism-based, Canis lupus familiaris; details: in vivo
[2] = system: Rattus norvegicus; assay: Anticoagulant activity in Sprague-Dawley rat deep vein thrombosis model assessed as activated partial thromboplastin time change at 0.2 mg/kg, iv administered as bolus and 8 ug/kg/min administered as infusion relative to control; assay type: functional
[3] = system: Plasma; assay: Anticoagulant activity in rat plasma assessed as concentration required to double thrombin time; assay type: functional
[4] = biological target: T1, Prothrombin (Homo sapiens, UniProt P00734); assay: Binding affinity to thrombin (unknown origin) by surface plasmon resonance analysis
[5] = Cmax in Beagle dog at 10 mg/kg, po; assay type: ADME, organism-based, Canis lupus familiaris; design: dose 10 mg/kg, route oral; details: in vivo
[6] = Plasma protein binding in rat at 1 ug/ml by ultra-filtration method; assay type: ADME, cell-free; details: read-out: PPB (converted)
[7] = system: Plasma; assay: Anticoagulant activity in monkey plasma assessed as concentration required to double thrombin time; assay type: functional, Macaca mulatta
[8] = biological target: T1, Prothrombin; assay: Inhibition of human thrombin
[9] = biological target: Trypsin (Homo sapiens, UniProt P07477+P07478+P35030); assay: Inhibition of human trypsin; assay type: protein assay
[10] = Aqueous solubility of the compound at pH 4.7; assay type: physicochemical; details: aqueous solution
[11] = Plasma protein binding in human at 5 ug/ml by ultra-filtration method; assay type: ADME, cell-free; details: read-out: PPB (converted)
[12] = species: Homo sapiens; assay: Selectivity ratio of Ki for human t-PA to Ki for human thrombin
[13] = species: Homo sapiens; assay: Selectivity ratio of Ki for human plasmin to Ki for human thrombin
[14] = system: Rattus norvegicus; assay: Anticoagulant activity in Sprague-Dawley rat deep vein thrombosis model assessed as prothrombin time change at 0.25 mg/kg, iv administered as bolus and 10 ug/kg/min administered as infusion relative to control; assay type: functional
[15] = system: Rattus norvegicus; assay: Anticoagulant activity in Sprague-Dawley rat deep vein thrombosis model assessed as wet clot weight at 0.2 mg/kg, iv administered as bolus and 8 ug/kg/min administered as infusion (reference value: 83 +/- 5.1 mg); assay type: functional
[16] = system: Rattus norvegicus; assay: Anticoagulant activity in Sprague-Dawley rat deep vein thrombosis model assessed as activated partial thromboplastin time change at 0.05 mg/kg, iv administered as bolus and 2 ug/kg/min administered as infusion relative to control; assay type: functional
[17] = system: Rattus norvegicus; assay: Anticoagulant activity in Sprague-Dawley rat deep vein thrombosis model assessed as prothrombin time change at 0.05 mg/kg, iv administered as bolus and 2 ug/kg/min administered as infusion relative to control; assay type: functional
[18] = biological target: T1, Prothrombin; assay: Competitive inhibition of human thrombin at 0.25 to 1 nM by Lineweaver-Burk plot analysis
[19] = Oral bioavailability in Sprague-Dawley rat at 30 mg/kg; assay type: ADME, organism-based; details: in vivo
[20] = system: Rattus norvegicus; assay: Anticoagulant activity in Sprague-Dawley rat deep vein thrombosis model assessed as reduction in wet clot weight administered as iv bolus followed by infusion relative to control; assay type: functional, organism-based
[21] = Plasma protein binding in dog at 5 ug/ml by ultra-filtration method; assay type: ADME, cell-free, Canis lupus familiaris; details: read-out: PPB (converted)
[22] = system: Plasma; assay: Anticoagulant activity in monkey plasma assessed as concentration required to double prothrombin time; assay type: functional, Macaca mulatta
[23] = AUC in Beagle dog at 10 mg/kg, po; assay type: ADME, organism-based, Canis lupus familiaris; design: dose 10 mg/kg, route oral; details: plasma
[24] = Aqueous solubility of the compound at pH 6.62; assay type: physicochemical; details: aqueous solution
[25] = system: Rattus norvegicus; assay: Anticoagulant activity in Sprague-Dawley rat deep vein thrombosis model assessed as prothrombin time change at 0.2 mg/kg, iv administered as bolus and 8 ug/kg/min administered as infusion relative to control; assay type: functional
[26] = system: Rattus norvegicus; assay: Anticoagulant activity in Sprague-Dawley rat deep vein thrombosis model assessed as activated partial thromboplastin time change at 0.1 mg/kg, iv administered as bolus and 4 ug/kg/min administered as infusion relative to control; assay type: functional
[27] = system: Plasma; assay: Anticoagulant activity in rabbit plasma assessed as concentration required to double prothrombin time; assay type: functional, Oryctolagus cuniculus
[28] = system: Plasma; assay: Anticoagulant activity in rat plasma assessed as concentration required to double activated partial thromboplastin time; assay type: functional
[29] = system: Plasma; assay: Anticoagulant activity in rabbit plasma assessed as concentration required to double activated partial thromboplastin time; assay type: functional, Oryctolagus cuniculus
[30] = Dissociation constant, pKa of the compound by potentiometric titration; assay type: physicochemical
[31] = Plasma protein binding in rat at 5 ug/ml by ultra-filtration method; assay type: ADME, cell-free; details: read-out: PPB (converted)
[32] = Distribution coefficient, log D of the compound at pH 7 by potentiometric titration; assay type: physicochemical; details: octanol/water
[33] = system: Plasma; assay: Anticoagulant activity in human plasma assessed as concentration required to double thrombin time; assay type: functional
[34] = Plasma protein binding in dog at 30 ug/ml by ultra-filtration method; assay type: ADME, cell-free, Canis lupus familiaris; details: read-out: PPB (converted)
[35] = biological target: T1, Prothrombin; assay: Inhibition of thrombin (unknown origin) assessed as fibrin clot formation
[36] = biological target: Tissue-type plasminogen activator (Homo sapiens, UniProt P00750); assay: Inhibition of human t-PA
Chain of Tissue-type plasminogen activator (P00750 whole entry, the tested form may be a part): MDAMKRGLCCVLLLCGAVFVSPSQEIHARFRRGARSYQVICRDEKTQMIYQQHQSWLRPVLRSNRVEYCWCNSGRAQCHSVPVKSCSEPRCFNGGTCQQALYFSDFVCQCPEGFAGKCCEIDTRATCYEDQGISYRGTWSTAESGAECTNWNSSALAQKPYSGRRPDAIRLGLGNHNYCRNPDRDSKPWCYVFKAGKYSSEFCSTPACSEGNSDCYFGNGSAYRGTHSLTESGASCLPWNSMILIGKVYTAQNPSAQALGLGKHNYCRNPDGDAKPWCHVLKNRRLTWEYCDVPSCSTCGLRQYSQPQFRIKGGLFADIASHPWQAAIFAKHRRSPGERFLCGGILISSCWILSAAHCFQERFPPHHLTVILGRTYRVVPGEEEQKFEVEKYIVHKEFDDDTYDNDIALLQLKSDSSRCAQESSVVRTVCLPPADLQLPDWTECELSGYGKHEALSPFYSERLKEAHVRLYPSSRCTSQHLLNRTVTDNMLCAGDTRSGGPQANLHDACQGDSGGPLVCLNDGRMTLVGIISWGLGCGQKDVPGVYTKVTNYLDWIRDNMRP

[37] = system: Rattus norvegicus; assay: Anticoagulant activity in Sprague-Dawley rat deep vein thrombosis model assessed as prothrombin time change at 0.1 mg/kg, iv administered as bolus and 4 ug/kg/min administered as infusion relative to control; assay type: functional
[38] = system: Rattus norvegicus; assay: Anticoagulant activity in Sprague-Dawley rat deep vein thrombosis model assessed as wet clot weight at 0.05 mg/kg, iv administered as bolus and 2 ug/kg/min administered as infusion (reference value: 83 +/- 5.1 mg); assay type: functional
[39] = biological target: Plasminogen (Homo sapiens, UniProt P00747); assay: Inhibition of human plasmin
Chain of Plasminogen (P00747 97-580 limits assumed): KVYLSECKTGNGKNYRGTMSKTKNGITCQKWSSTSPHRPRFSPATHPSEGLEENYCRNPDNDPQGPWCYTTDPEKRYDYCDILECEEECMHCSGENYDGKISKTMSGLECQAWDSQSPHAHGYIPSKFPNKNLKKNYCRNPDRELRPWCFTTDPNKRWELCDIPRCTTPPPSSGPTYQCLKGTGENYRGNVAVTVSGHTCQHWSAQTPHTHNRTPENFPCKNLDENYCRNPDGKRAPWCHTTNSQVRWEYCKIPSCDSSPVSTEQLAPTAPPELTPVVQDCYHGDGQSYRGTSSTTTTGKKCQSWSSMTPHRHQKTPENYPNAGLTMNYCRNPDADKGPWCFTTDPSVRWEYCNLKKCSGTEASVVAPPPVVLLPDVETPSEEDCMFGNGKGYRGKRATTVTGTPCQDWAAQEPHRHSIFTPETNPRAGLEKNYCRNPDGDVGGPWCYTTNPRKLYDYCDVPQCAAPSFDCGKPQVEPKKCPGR
Chain of Plasminogen (P00747 581-810 limits assumed): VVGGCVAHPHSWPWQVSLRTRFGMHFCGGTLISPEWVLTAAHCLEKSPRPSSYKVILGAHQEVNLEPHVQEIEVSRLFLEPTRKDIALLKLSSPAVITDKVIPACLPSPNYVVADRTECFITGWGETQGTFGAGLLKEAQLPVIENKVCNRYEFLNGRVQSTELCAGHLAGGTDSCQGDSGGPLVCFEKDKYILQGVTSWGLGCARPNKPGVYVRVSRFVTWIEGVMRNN

[40] = system: Rattus norvegicus; assay: Anticoagulant activity in Sprague-Dawley rat deep vein thrombosis model assessed as wet clot weight at 0.1 mg/kg, iv administered as bolus and 4 ug/kg/min administered as infusion (reference value: 83 +/- 5.1 mg); assay type: functional
[41] = Oral bioavailability in monkey; assay type: ADME, organism-based, Macaca mulatta; details: rhesus monkey, in vivo
[42] = system: Plasma; assay: Anticoagulant activity in monkey plasma assessed as concentration required to double activated partial thromboplastin time; assay type: functional, Macaca mulatta
[43] = Plasma protein binding in human at 1 ug/ml by ultra-filtration method; assay type: ADME, cell-free; details: read-out: PPB (converted)
[44] = system: Rattus norvegicus; assay: Anticoagulant activity in Sprague-Dawley rat deep vein thrombosis model assessed as reduction in wet clot weight at 50 ug/kg, iv administered as infusion; assay type: functional
[45] = species: Homo sapiens; assay: Selectivity ratio of Ki for human trypsin to Ki for human thrombin
[46] = Plasma protein binding in rat at 30 ug/ml by ultra-filtration method; assay type: ADME, cell-free; details: read-out: PPB (converted)
[47] = system: Rattus norvegicus; assay: Anticoagulant activity in Sprague-Dawley rat deep vein thrombosis model assessed as activated partial thromboplastin time change at 0.25 mg/kg, iv administered as bolus and 10 ug/kg/min administered as infusion relative to control; assay type: functional
[48] = Plasma protein binding in dog at 1 ug/ml by ultra-filtration method; assay type: ADME, cell-free, Canis lupus familiaris; details: read-out: PPB (converted)
[49] = system: Plasma; assay: Anticoagulant activity in rabbit plasma assessed as concentration required to double thrombin time; assay type: functional, Oryctolagus cuniculus
[50] = system: Plasma; assay: Anticoagulant activity in human plasma assessed as concentration required to double prothrombin time; assay type: functional
[51] = species: Homo sapiens; assay: Selectivity ratio of Ki for human factor 10a to Ki for human thrombin
[52] = Aqueous solubility of the compound at pH 7.35; assay type: physicochemical; details: aqueous solution
[53] = Plasma protein binding in human at 30 ug/ml by ultra-filtration method; assay type: ADME, cell-free; details: read-out: PPB (converted)
[54] = system: Rattus norvegicus; assay: Anticoagulant activity in Sprague-Dawley rat deep vein thrombosis model assessed as prothrombin time change at 0.025 mg/kg, iv administered as bolus and 1 ug/kg/min administered as infusion relative to control; assay type: functional
[55] = system: Plasma; assay: Anticoagulant activity in human plasma assessed as concentration required to double activated partial thromboplastin time; assay type: functional
[56] = Cmax in Sprague-Dawley rat at 30 mg/kg, po; assay type: ADME, organism-based; design: dose 30 mg/kg, route oral; details: in vivo
[57] = AUC in Sprague-Dawley rat at 30 mg/kg, po; assay type: ADME, organism-based; design: dose 30 mg/kg, route oral; details: plasma
[58] = biological target: T1, Prothrombin; assay: Inhibition of plasma clot-bound thrombin (unknown origin) using S2238 as substrate
[59] = system: Plasma; assay: Anticoagulant activity in rat plasma assessed as concentration required to double prothrombin time; assay type: functional
[60] = system: Rattus norvegicus; assay: Anticoagulant activity in Sprague-Dawley rat deep vein thrombosis model assessed as activated partial thromboplastin time change at 0.025 mg/kg, iv administered as bolus and 1 ug/kg/min administered as infusion relative to control; assay type: functional
[61] = biological target: Coagulation factor X (Homo sapiens, UniProt P00742); assay: Inhibition of human factor 10a
Chain of Coagulation factor X (P00742 41-179 limits assumed): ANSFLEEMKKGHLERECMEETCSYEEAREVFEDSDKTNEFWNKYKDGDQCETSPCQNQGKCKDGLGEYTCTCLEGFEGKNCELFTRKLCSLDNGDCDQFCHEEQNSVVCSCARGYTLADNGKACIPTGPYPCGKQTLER
Chain of Coagulation factor X (P00742 235-488 limits assumed): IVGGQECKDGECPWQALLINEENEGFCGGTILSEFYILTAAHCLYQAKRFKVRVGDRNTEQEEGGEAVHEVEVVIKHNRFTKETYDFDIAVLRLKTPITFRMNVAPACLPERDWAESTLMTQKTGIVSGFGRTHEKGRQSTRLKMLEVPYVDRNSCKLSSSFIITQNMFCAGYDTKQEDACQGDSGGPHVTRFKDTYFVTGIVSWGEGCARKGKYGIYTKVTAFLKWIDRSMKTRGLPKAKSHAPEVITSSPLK

[62] = biological target: T1, Prothrombin; assay: Inhibition of free thrombin (unknown origin) using S2238 as substrate

N=C(N)c1ccc(CNC(=O)[C@@H]2CCCN2C(=O)[C@@H](NCC(=O)O)C(c2ccccc2)c2ccccc2)s1
bioavailability [1]: 43%
fold change (FC) [2]: 5.58
2TT [3]: 0.01 µM
Activity [3]: Dose-dependent effect
Kd [4]: 0.18 nM
Cmax [5]: 6.9 µg/mL
fraction unbound at 1 ug/ml [6]: 0.124
2TT [7]: >0.2 µM
Activity ([7]; Macaca mulatta): Dose-dependent effect
Ki [8]: 0.02 nM
Ki [9]: 0.3 nM
solubility [10]: 15 mg/mL (≈ 28200 µM)
fraction unbound at 5 ug/ml [11]: 0.482
Ratio Ki [12]: 5210
Ratio Ki [13]: > 10000
fold change (FC) [14]: 17.2
Activity [15]: 0 mg
fold change (FC) [16]: 2.77
fold change (FC) [17]: 1.15
inhibition [18]: Active
bioavailability [19]: 30%
Activity [20]: Dose-dependent effect
fraction unbound at 5 ug/ml [21]: 0.177
2PT [22]: 0.3 µM
Activity ([22]; Macaca mulatta): Dose-dependent effect
AUC [23]: 12.2 µg·h/mL
solubility [24]: 0.57 mg/mL (≈ 1070 µM)
fold change (FC) [25]: 9.04
fold change (FC) [26]: 3.58
2PT [27]: 2.04 µM
Activity ([27]; Oryctolagus cuniculus): Dose-dependent effect
2aPTT [28]: 0.97 µM
Activity [28]: Dose-dependent effect
2aPTT [29]: 1.1 µM
Activity ([29]; Oryctolagus cuniculus): Dose-dependent effect
pKa [30]: 1.91
fraction unbound at 5 ug/ml [31]: 0.147
logD [32]: -0.088
2TT [33]: 0.016 µM
Activity [33]: Dose-dependent effect
fraction unbound at 30 ug/ml [34]: 0.216
IC50 [35]: 16 nM
Ki [36]: 113 nM
fold change (FC) [37]: 2.07
Activity [38]: 46 mg
Ki [39]: 7430 nM
Activity [40]: 23 mg
bioavailability [41]: 15%
2aPTT [42]: 0.51 µM
Activity ([42]; Macaca mulatta): Dose-dependent effect
fraction unbound at 1 ug/ml [43]: 0.485
ED50 [44]: 2 µg/kg/min
Ratio Ki [45]: 13.7
fraction unbound at 30 ug/ml [46]: 0.182
fold change (FC) [47]: 4.37
fraction unbound at 1 ug/ml [48]: 0.174
2TT [49]: 0.019 µM
Activity ([49]; Oryctolagus cuniculus): Dose-dependent effect
2PT [50]: 0.66 µM
Activity [50]: Dose-dependent effect
Ratio Ki [51]: > 10000
solubility [52]: 0.46 mg/mL (≈ 862 µM)
fraction unbound at 30 ug/ml [53]: 0.508
fold change (FC) [54]: 1.03
2aPTT [55]: 0.23 µM
Activity [55]: Dose-dependent effect
Cmax [56]: 2.9 µg/mL
AUC [57]: 9.27 µg·h/mL
IC50 [58]: 5 nM
2PT [59]: 1.12 µM
Activity [59]: Dose-dependent effect
fold change (FC) [60]: 1.68
Ki [61]: 2250 nM
IC50 [62]: 2.1 nM
